In US20240245702A1, “Inhibition of Lysine Demethylase 1 (Lsd1) Induces Differentiation of Hair Cells” (Massachusetts Eye and Ear Infirmary, priority 2018, published 2024):

Assays:
Assay type in all cases: cell-based, mouse
Atoh1 locus = experiment: Chromatin immunoprecipitation (ChIP-qPCR) of histone marks on the Atoh1 gene in LCPs
Description: Chromatin immunoprecipitation. The colonies were treated with Cell Recovery solution for up to 2 hours and TrypleE for 30 minutes. The cells were fixed with 1% formaldehyde for 30 minutes at room temperature before termination with 0.1M Glycine. The cells were treated with lysis buffer (0.5M EDTA and 0.05% Triton-X 100) for 30 minutes on ice and then with nuclear extraction buffer (0.5M EDTA, 20% SDS, 1M Tris-HCl, pH 8) for 10 minutes. The cross-linked chromatin was sonicated for 30 minutes (30×30 seconds with 30 second intervals) and shearing quality confirmed by running 10 ul of the sample on a 1% agarose gel. The input sample used was 5% of the total chromatin. Lo-bind tubes containing Dyna-A and Dyna-B beads in PBS-BSA were incubated with 3 μg of Primary antibody for 6 hours-overnight with rotation at 4° C. The antibodies used were as follows H3K4me (ab8895: Abcam), H3K4me2 (ab77661: Abcam), H3K9me2 (ab1220; Abcam) and Lsd1 (ab17721: Abcam). The chromatin samples were treated with dilution buffer (1% Triton-X 100, 0.5M EDTA, 5M NaCl, 1M Tris-HCl, pH 8 and 1% Protease inhibitors×100) and incubated with the prepared beads for 6 hours-overnight. The beads were captured on a magnetic rack, washed with ChIP RIPA buffer (1M Hepes, 0.5M EDTA, 10% Na-deoxycholate, NP-40 and 5M LiCl: 6×10 minute washes), TE buffer (1M Tris-HCl and 0.5M EDTA: 2×10 minute washes), resuspended in reverse crosslinking solution (0.5M NaHCO3 and 20% SDS) and incubated overnight at 65° C. DNA was recovered using the Active motif DNA extraction kit (58002: Active Motif). RT-qPCR analyses were performed on immunoprecipitated DNA using specific primers described in Table 2. The results were calculated and presented as relative fold enrichment over the input.
In order to further dissect the mechanism of Lsd1 activity, we analyzed changes in epigenetic marks on several sites along the Atoh1 gene using chromatin immunoprecipitation. We used the LCPs starting at day 0 (D0) of differentiation with day 10 (D10) as the endpoint (FIG. 5A). Lsd1 has been characterized to demethylate the activating epigenetic marks H3K4me and H3K4me2 (Shi et al., 2004). […] Consistently, we observed accumulation of the activating H3K4me2 mark at the proximal promoter region (region 2) of the Atoh1 gene during hair cell differentiation (D10, p<0.05*: FIG. 5B). […] In addition, we examined the enrichment levels of H3K4me around the Atoh1 locus. […] Collectively, these findings reveal that Lsd1 inhibition increases accumulation of activating epigenetic marks, thereby facilitating the opening of the chromatin and activating transcription of the Atoh1 gene.
As Lsd1 is also known to demethylate H3K9me2, we analyzed the changes in the levels of this repressive mark at the Atoh1 locus (Metzger et al., 2005).

Atoh1-nGFP cells = experiment: Hair cell differentiation of LCP organoids, FACS for Atoh1-nGFP cells; conditions: 10 days of differentiation (D10), standard differentiation treatment (CHIR99021 and LY411575) without or with pargyline
Description: (§1) Differentiation of LCPs into a hair cell lineage. […] To analyze the effect of the Lsd1 inhibitors, the LCPs were treated with the small molecules combined with a differentiation drug cocktail, pargyline and CHIR99021 or CHIR99021 at 1, 2, 4, and 10 days (McLean et al., 2017).
(§2) For the drug screening experiments, the expanded cells were passaged into a 96 well plate to test varying drug combinations. All experiments were done in triplicate at minimum. Atoh1-nGFP cells were quantified after 10 days in culture. The cell colonies were incubated in Cell Recovery Solution for 1 hour and dissociated into single cells using TrypleE. The total cell number and percentage of GFP+ cells were quantified using fluorescence activated cell sorting (FACS).
(§3) We next tested the effect of Lsd1 inhibition on hair cell differentiation. In this assay, after the cells were expanded into organoids during the initial proliferation phase, differentiation was initiated using the combination of CHIR99021 and LY411575 and allowed to progress for 10 days (DO to D10). Organoids were monitored for the development of hair cells using FACS and qRT-PCR. […] Conversely, Myo7a expression increases throughout development and is a key marker of mature hair cells. All hair cell markers tested were elevated with the exception of Atoh1, which had begun to decrease 10 days after the initiation of differentiation.

Myo7a = experiment: qRT-PCR of Myo7a in differentiated LCP organoids; conditions: D10, pargyline-treated cells relative to standard treatment, p<0.05
Description: as §1
RNA extraction and PCR. For the LCPs, the organoids were treated with Cell Recovery Solution for at 1 hour and TrypleE for 20 minutes, then frozen in RLT buffer. RNA extractions were performed using the RNeasy Micro Kit (QIAGEN) and cDNA generated using ImProm-II Reverse Transcription Kit (Promega). TaqMan Real-Time PCR was performed in triplicates using the TaqMan Gene Expression Master Mix (ThermoFisher Scientific) on a StepOne Real-Time PCR machine (ThermoFisher Scientific). Ordinary One-way Anova was used to assess statistical significance. A minimum of three biologically distinct samples were analyzed for each condition.
as §3, with “All hair cell markers tested were elevated with the exception of Atoh1, which had begun to decrease 10 days after the initiation of differentiation.” left out

[1] = test system: Lgr5-expressing cochlear progenitors cells (LCPs); experiment: Proliferation of Lgr5+ cochlear progenitors (LCPs) in organoid culture; conditions: first 10 days in culture, Lgr5-nGFP mice cells, combined with CHIR99021
Description: Isolation and expansion of inner ear Lgr5+ cells. A recently published protocol was used to derive organoids from inner ear stem cells [also referred to as Lgr5+ cochlear progenitors (LCPs) (McLean et al., 2017). Briefly, the organ of Corti was dissected from neonatal mice (postnatal days 2-5) in Hank's balanced salt solution and treated with Cell Recovery Solution (Corning) for 1 hour. The cochlear epithelium was then peeled from the underlying mesenchyme, collected and treated with TrypleE for 20 minutes at 37° C. The single cells were mechanically triturated, filtered ([…] cell strainer) and suspended in a Matrigel (Corning) dome for 3D culture. The cells were seeded in a 24-well plate, specifically at one cochlea per well of a 24-well plate.
as §2
We screened a collection of Lsd1 inhibitors over the first 10 days in culture (FIGS. 9A and 9B) to examine their effect on proliferation of LCPs (FIGS. 9C and 9D). […]

C#CCN(C)Cc1ccccc1 [pargyline, N-Methyl-N-propargylbenzylamine]
levels of H3K4me2 at the enhancer regions (region 5) of Atoh1 (Atoh1 locus; D10 with pargyline): not statistically significant
level of H3K4me2 at the proximal promoter region (region 2) of Atoh1 (Atoh1 locus; D10 with pargyline compared to D0, p<0.01): significantly increased
enrichment for H3K9me2 on the Atoh1 gene (Atoh1 locus; addition of pargyline): did not significantly alter
H3K4me mark at the enhancer region (region 5) of Atoh1 (Atoh1 locus; after pargyline treatment, p<0.01): significant enrichment
percentage of Atoh1-nGFP cells in culture (Atoh1-nGFP cells): 39%
Myo7a expression (Myo7a): significantly upregulated
proliferation of Lgr5 cells (LCP cell division) [1]: 26%
